The nature of the series: Solubility test of xylose in solvent systems suitable as organosolv treatment liquid. In kind it is physicochemical. Conditions: 20° C., stirred 24 h, based on total weight of the xylose added. The method, then:
The solubility of xylose (>99% pure, VWR) in different solvent systems, that are suitable to be used as treatment liquid during organosolv, is tested. Xylose was used as representative of all monomeric sugars, as it is the most abundant carbohydrate found in hemicellulose present in hardwoods and herbaceous biomass and thus in corresponding organosolv liquors. The indicated amount of xylose was added to each solvent system at 20° C. and the suspension was mechanically stirred for 24 h. Hereafter, the saturated solution containing remaining xylose was allowed to settle for 3 h and the liquid was removed. The residue was dried and the amount of undissolved xylose was determined.

For `O=C[C@H](O)[C@@H](O)[C@H](O)CO` [xylose], the xylose not dissolved is, setting by setting: (acetone (100%), 2.7 wt % xylose added) 99.1 wt %; (ethanol (100%), 2.5 wt % xylose added) 82.2 wt %; (water/acetone 1.9/98.1 (w/w), 2.7 wt % xylose added) 99.1 wt %; (water/acetone 4.9/95.1 (w/w), 2.7 wt % xylose added) 93.0 wt %; (water/acetone 8.4/91.6 (w/w), 2.0 wt % xylose added) 79.1 wt %; (water/acetone 9.9/90.1 (w/w), 2.3 wt % xylose added) 80.2 wt %. Also, the xylose not dissolved runs as follows: (water/ethanol 4.3/95.7 (w/w), 2.2 wt % xylose added) 49.7 wt %; (water/ethanol 4.7/95.3 (w/w), 2.3 wt % xylose added) 46.2 wt %; (water/ethanol 7.8/92.2 (w/w), 2.3 wt % xylose added) 16.6 wt %; (water/ethanol 9.7/90.3 (w/w), 2.3 wt % xylose added) 0.0 wt %.
